# Measurements: patent publication US20100285141A1, “COMPOSITIONS AND METHODS FOR ENHANCING THE ACTIVITY OF PODOPHYLLOTOXIN” (DO-COOP TECHNOLOGIES LTD., priority 2008, published 2010)
# Experiments:
# [1] = test system: PC3 prostate cancer cells; test: Etoposide in Neowater or deionized water, surviving cells by XTT dye uptake, PC3; assay type: cell-based, human; settings: PC3, 24 hours incubation, FIG. 1B
# From the text: (§1) Two human prostate cancer cell lines were examined—LnCap and PC3.
# [2] = test system: LnCap prostate cancer cells; test: Etoposide in Neowater or deionized water, surviving cells by XTT dye uptake, LnCap; assay type: cell-based, human; settings: 24 hours incubation, FIG. 1A
# From the text: as §1
smiles,measurement,setting,value
"COc1cc([C@@H]2c3cc4c(cc3[C@@H](O[C@@H]3O[C@@H]5CO[C@@H](C)O[C@H]5[C@H](O)[C@H]3O)[C@H]3COC(=O)[C@H]23)OCO4)cc(OC)c1O [etoposide, Etoposide]",proliferation of cancer cells (cell growth),[1],dose-dependent decrease
same,proliferation of cancer cells (cell growth),[2],dose-dependent decrease
